≈ marks a conversion by molar mass, not a printed value. Where two headings read alike, the source gives them in different places.
Experiments:
[1] = tested on: cytopathogenic bovine orphan virus (ECBO) strain LCR-4; test: Time of addition assay (post-adsorption), CPE/MTT in A549 cells; type: cell-based, cytopathogenic bovine orphan virus (BEV-1); settings: for EC50: A549; for antiviral activity: ECBO, A549 cells, CC20 concentration
[2] = tested on: T47D (human ductal carcinoma); test: Cytotoxic activity, WST-1 assay; type: cell-based; settings: 72 h, Neg = negative in the concentration used; for IC50: Homo sapiens
[3] = tested on: MCF-7 (human adenocarcinoma); test: Cytotoxic activity, WST-1 assay; type: cell-based; settings: MCF-7, 72 h, Neg = negative in the concentration used; for IC50: Homo sapiens, MCF7
[4] = tested on: SNB-19 (glioblastoma); test: Cytotoxic activity, WST-1 assay; type: cell-based, human; settings: SNB-19, 72 h, Neg = negative in the concentration used; for IC50: Homo sapiens
[5] = tested on: Colo-829 (human malignant melanoma); test: Cytotoxic activity, WST-1 assay; type: cell-based; settings: Homo sapiens; Colo-829, 72 h; Neg = negative in the concentration used
[6] = tested on: C-32 (human amelanotic melanoma); test: Cytotoxic activity, WST-1 assay; type: cell-based; settings: C-32, 72 h, Neg = negative in the concentration used; for IC50: Homo sapiens
[7] = tested on: SKOV-3 human ovarian cancer cell line; test: Inhibition of tumor cell proliferation (MTT); settings: SK-OV-3, 96 h, read-out: Max. Inhibition (% of Control)
Procedure: Antiproliferative activities of the compounds were measured by the MTT assay using A549 cells and a human ovarian cancer cell line SKOV-3 (adenocarcinoma ATCC® HTB77™). A total of 2 × 10^3 cells in DMEM medium supplemented with 5% FBS were placed in each well of a 96-well flat-bottom plate. After 24 h of incubation at 37 °C in 5% CO2, the growth medium was replaced by media containing different concentrations of the derivatives. Control cultures received cisplatin 0.1–10 μg/mL, and blank wells contained 100 μL of growth medium with no cells. After 96 h of incubation, cell proliferation was determined by the colorimetric MTT assay (570 nm) reading for each concentration compared with the control. At least three replicates for each sample were used to determine the cell proliferation.

[8] = Cytotoxicity assay (MTT), determination of CC50; settings: human
Procedure: (§1) The cytotoxic effect of compounds on A549 cells was determined by the MTT method, as previously described [36]. The MTT assay is the enzyme-based method, which use the 3-(4,5-dimethylthiazol-2-yl)-2,5-diphenyltetrazolium bromide as a reductive coloring agent. Briefly, subconfluent monolayers of A549 cells (2 × 10^4 cell/well in Dulbecco’s Minimal Essential Medium (DMEM) supplemented with 5% fetal bovine serum (FBS), antibiotics (100 U/mL penicillin and 100 μg/mL streptomycin), and 2 mM L-glutamine (all from Sigma Aldrich, St. Louis, MO, USA) were incubated in 96-multi-well plates in the presence of dilutions of the compounds ranging from 100 μg/mL to 0.5 μg/mL, in triplicate for 48 h at 37 °C in a humidified atmosphere with 5% CO2. After 48 h, 20 μL of MTT solution (Promega, Madison, WI, USA) was added to each well, and the microplates were kept at 37 °C/5% CO2 for 3 h. Then, the solubilization/stop solution containing SDS-HCl (100 μL/well) was added, and the absorbance values of the wells were measured at 570 nm using a 96-well plate reader (Multiskan RC spectrophotometer, Thermo Labsystems, Waltham, MA, USA). Cell viability (%) was calculated for each concentration as Abs treated/Abs control × 100, where Abs treated and Abs control are the absorbance readings for the wells with and without the tested compounds, respectively. The 50% cytotoxic concentration (CC50) was defined as the concentration that reduced cell viability by 50% with respect to controls without drugs. The CC50 value was calculated from the corresponding dose–response curves.

[9] = tested on: human adenovirus type-5 (HAdV-5); test: Time of addition assay, CPE/MTT in A549 cells; type: cell-based; settings: for antiviral activity: HAdV-5, A549 cells, CC20 concentration
[10] = tested on: vesicular stomatitis virus (VSV); type: cell-based; settings: A549 cells, CC20 concentration
[11] = tested on: herpes simplex virus type-1 (HSV-1); test: Time of addition assay, CPE/MTT in A549 cells; type: cell-based; settings: HSV-1, A549 cells, CC20 concentration
[12] = in vitro; settings: human
Procedure: as §1

[13] = tested on: Escherichia coli ATCC 25922; test: Broth microdilution method (MIC, MBC)
Procedure: (§2) The minimal inhibitory concentration (MIC) and minimal bactericidal concentration (MBC) were determined by the broth microdilution method, according to the Clinical and Laboratory Standards Institute [32, 33].
(§3) The antibacterial and antifungal activities of compounds were evaluated using the following strains: Staphylococcus aureus (ATCC 25923), Enterococcus faecalis (ATCC 29212), Escherichia coli (ATTC 25922), Pseudomonas aeruginosa (ATTC 27853), Klebsiella pneumoniae ATTC 700603), and Candida albicans (ATTC 10231). Cells were cultured for 24–48 h on Columbia agar or Sabouraud agar (C. albicans) in a saline solution (0.9% NaCl) and adjusted to a 0.5 McFarland density standard (1.5 × 10^8 CFU/mL). The final density of microorganisms was approximately 3 × 10^5 CFU/mL. The solutions of compounds were added to the medium at various concentrations (0.06 μM–2 mM). […] The experiments were performed in triplicate.

[14] = tested on: Klebsiella pneumoniae ATCC 700603; test: Broth microdilution method (MIC, MBC)
Procedure: as §2, §3

[15] = selectivity index, ratio of CC50 to EC50, ECBO in A549 cells

`C=C(C)[C@@H]1CC[C@]2(CO)CC[C@]3(C)[C@H](CC[C@@H]4[C@@]5(C)CC[C@H](O)C(C)(C)[C@@H]5CC[C@]43C)[C@@H]12` [Betulin 1, Betulin] showed an EC50 [1] of 0.5 µg/mL (≈ 1.13 µM), an SI [1, 15] of 37.0 and an SI ([1]; selectivity index, ratio of CC50 to EC50, ECBO in A549 cells, listed as betulin 1) of 37. For the same compound, the “IC50 ± SD” value [2] was “Neg”, the “IC50 ± SD” value [3] was “Neg” and the IC50 [4] was 17.7 ± 1.2 µM. The IC50 [5] was 15.3 ± 2.2 µM, the “IC50 ± SD” value [6] was “Neg” and the inhibition at 2.5 µg/mL [7] was 30%. It also gave a CC50 at 48 h [8] of 18.5 µg/mL (≈ 41.8 µM).
For `C#CC(=O)OC[C@]12CCC(C(=C)C)C1C1CCC3[C@@]4(C)CC[C@H](O)C(C)(C)C4CC[C@@]3(C)[C@]1(C)CC2` (some centres unmarked) [Compound 3, 28-O-propynoylbetulin], the antiviral activity [1] was “did not exhibit antiviral activity”, the antiviral activity [9] was “did not exhibit antiviral activity” and the antiviral activity [10] was “did not exhibit antiviral activity”. For the same compound, the antiviral activity [11] was “did not exhibit antiviral activity”, the IC50 [2] was 110.8 ± 0.9 µM and the IC50 [3] was 102 ± 1.4 µM. It also gave an IC50 [4] of 4.2 ± 0.3 µM, an IC50 [5] of 1.7 ± 0.08 µM and an IC50 [6] of 16.7 ± 0.8 µM.
For `C#CC(=O)OC[C@]12CCC(C(=C)C)C1C1CCC3[C@@]4(C)CC[C@H](OC(=O)C#C)C(C)(C)C4CC[C@@]3(C)[C@]1(C)CC2` (some centres unmarked) [Compound 4, 3,28-O,O’-di(propynoyl)betulin], the antiviral activity [1] was “did not exhibit antiviral activity”, the antiviral activity [9] was “did not exhibit antiviral activity” and the antiviral activity [10] was “did not exhibit antiviral activity”. For the same compound, the antiviral activity [11] was “did not exhibit antiviral activity”, the “IC50 ± SD” value [2] was “Neg” and the “IC50 ± SD” value [3] was “Neg”. The IC50 [4] was 13.1 ± 1.3 µM, the IC50 [5] was 9.7 ± 1.5 µM and the IC50 [6] was 121 ± 4.1 µM.
`C=C(C)C1CCC2(COC(=O)c3cn(C4CC(n5cc(C)c(=O)[nH]c5=O)OC4CO)nn3)CCC3(C)C(CCC4C5(C)CCC(O)C(C)(C)C5CCC43C)C12` (centres unmarked) [Compound 5e] showed an EC50 [1] of 1 µg/mL (≈ 1.31 µM), an SI [1, 15] of 10.3 and an SI ([9]; anti-HAdV-5 activity, ratio of CC50 to EC50, data not shown) of 6. For the same compound, the “IC50 ± SD” value [2] was “total decay of cytotoxic activity and Neg”, the “IC50 ± SD” value [3] was “Neg” and the “IC50 ± SD” value [4] was “Neg”. For the same compound, the IC50 [5] was 35.1 ± 6.2 µM, the IC50 [6] was 75.2 ± 3.7 µM and the melting point was 181 to 185 °C. The CC50 at 48 h [12] was 10.3 µg/mL (≈ 13.5 µM), the MBC ([13]; ATCC25922) was 7.8 µM (≈ 5.94 µg/mL) and the MIC ([13]; ATCC25922, 18 h) was 1.95 µM (≈ 1.49 µg/mL). The bactericidal capacity ([13]; judged from MBC:MIC ratio) was “bactericidal activity”, the “MBC:MIC ratio” value [14] was over 4 and the MBC ([14]; ATCC700603) was 3.9 µM (≈ 2.97 µg/mL). The MIC ([14]; ATCC700603, 18 h) was 0.95 µM (≈ 0.724 µg/mL), the bactericidal capacity ([14]; judged from MBC:MIC ratio) was “bacteriostatic” and the inhibition at 50 µg/mL [7] was 75%.
With `C=C(C)C1CC[C@]2(COC(=O)c3cn(CCCO)nn3)CC[C@]3(C)C(CCC4[C@@]5(C)CC[C@H](OC(=O)c6cn(CCCO)nn6)C(C)(C)C5CC[C@]43C)C12` (some centres unmarked) [Compound 6h, 3,28-O,O’-Di[1-(3-hydroxypropyl-1H-1,2,3-triazol-4-yl)carbonyl]betulin] the EC50 [1] was 0.25 µg/mL (≈ 0.334 µM), the antiviral activity [9] was “essentially inactive” and the antiviral activity [10] was “essentially inactive”. For the same compound, the antiviral activity [11] was “essentially inactive”, the IC50 [2] was 62.4 ± 1.1 µM and the IC50 [3] was 11.7 ± 1.2 µM. It also gave an IC50 [4] of 68.3 ± 0.9 µM, an IC50 [5] of 6.5 ± 1 µM and an IC50 [6] of 9.1 ± 0.2 µM. For the same compound, the melting point was 172 to 176 °C, the CC50 at 48 h [12] was 29.8 µg/mL (≈ 39.8 µM) and the inhibition at 50 µg/mL [7] was 70%.
With `NC(=O)c1ncn([C@@H]2O[C@H](CO)[C@@H](O)[C@H]2O)n1` [Ribavirin, reference compound] the SI [1] was 10.0, the EC50 [1] was 10 µg/mL (≈ 40.9 µM) and the inhibition at 1.5 µg/mL [7] was 30%. It also gave a CC50 at 48 h ([8]; A549 cells) of 100 µg/mL (≈ 409 µM).
